Data as given in PubChem BioAssay (NCI).
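These data come from cells grown in 96-well plates and exposed to compound for 48 hours at five concentrations. GI50 = concentration required for 50% inhibition of growth. At the TGI there is no net growth.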

Columns and labels:
Assay in all cases: DTP human tumour cell line panel, 48 h
[1] = tested on: NCI-H460 lung
[2] = tested on: SN12C renal
[3] = tested on: SW-620 colon
[4] = tested on: KM12 colon
[5] = tested on: SNB-19 CNS
[6] = tested on: SF-268 CNS
[7] = tested on: NCI-H522 lung
[8] = tested on: HCT-15 colon
[9] = tested on: HCT-116 colon
[10] = tested on: UACC-62 melanoma

SMILES	GI50 [1] [µM]	TGI [1] [µM]	GI50 [2] [µM]	TGI [2] [µM]	GI50 [3] [µM]	TGI [3] [µM]	GI50 [4] [µM]	TGI [4] [µM]	GI50 [5] [µM]	TGI [5] [µM]	GI50 [6] [µM]	TGI [6] [µM]	GI50 [7] [µM]	TGI [7] [µM]	GI50 [8] [nM]	TGI [8] [µM]	GI50 [9] [µM]	TGI [9] [µM]	GI50 [10] [µM]	TGI [10] [µM]
CCCCCCCCCCCCCC(=O)C(C)N (centres undefined)	4.16	15.3	3.71	13.3	11.6	27.2	3.71	15.5	13.5	30.7	3.96	16	12.7	27.5	917	4	5.27	18.7	3.25	10.4
COc1ccc(C(=O)C(C(=O)C(=O)Nc2nccs2)c2ccc(OC)cc2)cc1 (centres undefined)	–	> 100	–	> 100	–	> 100	–	> 100	–	> 100	–	> 100	–	> 100	–	> 100	–	> 100	–	> 100
c1cc(-c2cn[nH]c2)cc(-c2cn[nH]c2)c1	–	> 100	–	> 100	–	> 100	–	> 100	–	> 100	–	> 100	–	> 100	–	96.4	–	49.4	–	35.6
COc1cc(C2=NN(c3ccc(S(N)(=O)=O)cc3)C(c3ccc(Cl)cc3)C2)cc(OC)c1OC (centres undefined)	3.95	> 100	6.67	> 100	4.49	> 100	4.79	> 100	5.48	> 100	6.86	> 100	3.03	> 100	3770	> 100	3.41	> 100	4.12	> 100
Nc1ccc2ccc(NS(=O)(=O)N3CCCCC3)cc2c1	0.409	–	0.653	> 100	0.336	> 100	0.273	> 65.7	0.797	> 100	1.57	> 100	0.205	0.76	440	> 100	0.514	> 38.7	0.301	> 100
NCCP(=O)(O)O	–	> 100	–	> 100	–	> 100	–	> 100	–	> 100	–	> 100	–	> 100	–	> 100	–	> 100	–	> 100
COC(=O)C1(C2CC/C(C)=C/CC/C(C)=C/CC[C@@]3(C)O[C@@H]3C2)CC1 (some centres undefined)	35.5	> 100	> 100	> 100	40	> 100	18.9	43.5	> 100	> 100	> 100	> 100	50.4	> 100	> 66700	> 100	33	> 100	> 100	> 100
C1=C(c2ccccc2)C(c2ccc(OCCN3CCCCC3)cc2)Oc2ccccc21 (centres undefined)	1.94	3.72	1.92	3.73	1.83	3.62	1.74	3.29	2.06	4.16	2.66	9.93	1.59	3.37	1500	2.99	1.7	3.07	1.92	3.68
O=C(Nc1cccc(O)c1)c1cccc(NC2=C(Cl)C(=O)N(Cc3ccccc3)C2=O)c1	36.8	> 100	8.26	22.1	6.53	29.9	11.4	25	18.8	41.4	21.8	54.2	3.08	17.4	16200	30.1	18.1	32	14.6	28.1
CC(C)(C)[Si](C)(C)OCC1C=CC(n2cnc3c(N)ncnc32)O1 (centres undefined)	–	> 100	–	> 100	–	> 95.8	–	> 100	–	> 100	–	> 100	–	> 100	–	> 100	–	50.6	–	> 69.5
